# Laboratory results reported in ChEMBL document CHEMBL6127088, “Novel 2-aminothiazole analogues both as polymyxin E synergist and antimicrobial agent against multidrug-resistant Gram-positive bacteria” (2024).
# Active and inactive are the calls of the source. The rule behind the calls is not given here.
# Columns and labels:
# Bacillus subtilis [1] = assay: Antimicrobial activity against Bacillus subtilis ATCC 20678 incubated for 18 hrs by broth microdilution method; format: functional
# Cell membrane [2] = assay: Induction of outer membrane disruption in Acinetobacter baumannii ATCC 19606 assessed as decrease in fluorescence intensity by NPN dye based fluorescence analysis; format: subcellular
# Pseudomonas aeruginosa [3] = assay: Synergistic antibacterial activity against Pseudomonas aeruginosa PAE 3887 assessed as polymyxin-E MIC at 4 microg/ml incubated for 18 hrs by broth microdilution method; format: functional; settings: dose 4 µg/ml
# Pseudomonas aeruginosa [4] = assay: Synergistic antibacterial activity against Pseudomonas aeruginosa […] assessed as fractional inhibitory concentration index at 4 microg/ml incubated for 18 to 20 hrs by chequerboard assay; format: functional; settings: dose 4 µg/ml; time 18-20 hrs
# Staphylococcus aureus [5] = assay: Antibacterial activity against methicillin-resistant Staphylococcus aureus ATCC 43300 assessed as inhibition of bacterial growth at 0.5 to 1 microg/ml incubated for 0 to 8 hrs by time-kill assay; format: functional, organism-based; settings: dose 0.5-1 µg/ml, time 0-8 hrs
# Staphylococcus aureus [6] = assay: Antibacterial activity against Staphylococcus aureus S1-1-1 assessed as inhibition of bacterial growth incubated for 18 hrs by broth microdilution method; format: functional
# Pseudomonas aeruginosa [7] = assay: Synergistic antibacterial activity against Pseudomonas aeruginosa […] assessed as fold change in polymyxin-E MIC incubated for 18 hrs by broth microdilution method relative to polymyxin-E alone; format: functional
# Bacillus subtilis [8] = assay: Antibacterial activity against Bacillus subtilis 168 assessed as inhibition of bacterial growth incubated for 18 hrs by broth microdilution method; format: functional
# Staphylococcus aureus [9] = assay: Antibacterial activity against Staphylococcus aureus LAC assessed as inhibition of bacterial growth incubated for 18 hrs by broth microdilution method; format: functional
# Pseudomonas aeruginosa [10] = assay: Synergistic antibacterial activity against Pseudomonas aeruginosa PAE 3887 assessed as fold change in polymyxin-E MIC incubated for 18 hrs by broth microdilution method relative to polymyxin-E alone; format: functional
# Cell membrane [11] = assay: Disruption of cell membrane integrity in Acinetobacter baumannii ATCC 19606 assessed as outer membrane expansion at 4 microg/ml incubated for 1 hrs by TEM analysis; format: subcellular; settings: dose 4.0 µg/ml
# Klebsiella pneumoniae [12] = assay: Synergistic antibacterial activity against Klebsiella pneumoniae KPN 943 assessed as polymyxin-E MIC at 4 microg/ml incubated for 18 hrs by broth microdilution method; format: functional; settings: dose 4 µg/ml
# Enterococcus faecalis = assay: Antibacterial activity against Enterococcus faecalis ATCC 51299 assessed as inhibition of bacterial growth incubated for 18 hrs by broth microdilution method; format: functional
# Pseudomonas aeruginosa [13] = assay: Synergistic antibacterial activity against Pseudomonas aeruginosa PAE 1051 assessed as polymyxin-E MIC at 4 microg/ml incubated for 18 hrs by broth microdilution method; format: functional; settings: dose 4 µg/ml
# Klebsiella pneumoniae [14] = assay: Antibacterial activity against Klebsiella pneumoniae SIPI-KPN-1712 incubated for 18 hrs by broth microdilution method; format: functional
# Klebsiella pneumoniae [15] = assay: Synergistic antibacterial activity against Klebsiella pneumoniae SIPI-KPN-1712 assessed as fractional inhibitory concentration index at 4 microg/ml incubated for 18 to 20 hrs by chequerboard assay; format: functional; settings: dose 4 µg/ml; time 18-20 hrs
# Acinetobacter baumannii [16] = assay: Synergistic antibacterial activity against Acinetobacter baumannii ATCC 19606 assessed as fold change in polymyxin-E MIC incubated for 18 hrs by broth microdilution method relative to polymyxin-E alone; format: functional
# Acinetobacter baumannii [17] = assay: Synergistic antibacterial activity against Acinetobacter baumannii ATCC 19606 assessed as polymyxin-E MIC at 4 microg/ml incubated for 18 hrs by broth microdilution method; format: functional; settings: dose 4 µg/ml
# Acinetobacter baumannii [18] = assay: Synergistic antibacterial activity against Acinetobacter baumannii Ab 1613 assessed as fold change in polymyxin-E MIC incubated for 18 hrs by broth microdilution method relative to polymyxin-E alone; format: functional
# Pseudomonas aeruginosa [19] = assay: Synergistic antibacterial activity against Pseudomonas aeruginosa […] assessed as polymyxin-E MIC at 4 microg/ml incubated for 18 hrs by broth microdilution method; format: functional; settings: dose 4 µg/ml
# Acinetobacter baumannii [20] = assay: Antibacterial activity against Acinetobacter baumannii ATCC 19606 infected in female Balb/c mouse model assessed as increase in animal survival at 64 mg/kg, iv administered every 12 hrs and measured for 7 days; format: functional, organism-based
# Bacillus subtilis [21] = assay: Antibacterial activity against Bacillus subtilis CMCC(B) 63501 assessed as inhibition of bacterial growth incubated for 18 hrs by broth microdilution method; format: functional
# Klebsiella pneumoniae [22] = assay: Synergistic antibacterial activity against Klebsiella pneumoniae SIPI-KPN-1712 assessed as fold change in polymyxin-E MIC incubated for 18 hrs by broth microdilution method relative to polymyxin-E alone; format: functional
# Acinetobacter baumannii [23] = assay: Synergistic antibacterial activity against Acinetobacter baumannii Ab 1611 assessed as polymyxin-E MIC at 4 microg/ml incubated for 18 hrs by broth microdilution method; format: functional; settings: dose 4 µg/ml
# Acinetobacter baumannii [24] = assay: Antibacterial activity against Acinetobacter baumannii ATCC 19606 assessed as inhibition of bacterial growth at 4 microg/ml incubated for overnight in presence of 0.25 microg/ml polymyxin-E by time-kill assay; format: functional, organism-based; settings: dose 4.0 µg/ml
# Acinetobacter baumannii [25] = assay: Synergistic antimicrobial activity against Acinetobacter baumannii ATCC 19606 assessed as fractional inhibitory concentration index in presence of polymyxin E incubated for 18 to 20 hrs by chequerboard assay; format: functional; settings: time 18-20 hrs
# Staphylococcus aureus [26] = assay: Antibacterial activity against Staphylococcus aureus S1-1-38 assessed as inhibition of bacterial growth incubated for 18 hrs by broth microdilution method; format: functional
# [27] = system: Mycolicibacterium smegmatis; assay: Antibacterial activity against Mycobacterium smegmatis ARC 700044 assessed as inhibition of bacterial growth incubated for 18 hrs by broth microdilution method; format: functional
# Staphylococcus aureus [28] = assay: Antibacterial activity against Staphylococcus aureus NCTC 8325 assessed as inhibition of bacterial growth incubated for 18 hrs by broth microdilution method; format: functional
# Cell membrane [29] = assay: Disruption of cell membrane integrity in Acinetobacter baumannii ATCC 19606 assessed as cellular damage at 4 microg/ml incubated for 1 hrs by TEM analysis; settings: dose 4.0 µg/ml
# Acinetobacter baumannii [30] = assay: Antibacterial activity against Acinetobacter baumannii Ab 1613 incubated for 18 hrs by broth microdilution method; format: functional
# Staphylococcus aureus [31] = assay: Antibacterial activity against Staphylococcus aureus S1-1-7 assessed as inhibition of bacterial growth incubated for 18 hrs by broth microdilution method; format: functional
# Acinetobacter baumannii [32] = assay: Synergistic antibacterial activity against Acinetobacter baumannii Ab 1611 assessed as fractional inhibitory concentration index at 4 microg/ml incubated for 18 to 20 hrs by chequerboard assay; format: functional; settings: dose 4 µg/ml; time 18-20 hrs
# Pseudomonas aeruginosa [33] = assay: Antibacterial activity against Pseudomonas aeruginosa ATCC 13883 incubated for 18 hrs by broth microdilution method; format: functional
# Cell membrane [34] = assay: Disruption of cell membrane integrity in Acinetobacter baumannii ATCC 19606 assessed as cellular vacuolization at 4 microg/ml incubated for 1 hrs in presence of polymyxin-E by TEM analysis; format: subcellular; settings: dose 4.0 µg/ml
# Acinetobacter baumannii [35] = assay: Antibacterial activity against Acinetobacter baumannii Ab 1611 incubated for 18 hrs by broth microdilution method; format: functional
# Klebsiella pneumoniae [36] = assay: Antibacterial activity against Klebsiella pneumoniae KPN 1617 incubated for 18 hrs by broth microdilution method; format: functional
# Klebsiella pneumoniae [37] = assay: Synergistic antibacterial activity against Klebsiella pneumoniae KPN 943 assessed as fold change in polymyxin-E MIC incubated for 18 hrs by broth microdilution method relative to polymyxin-E alone; format: functional
smiles,measurement,setting,value
C/C(=N\Nc1ccccn1)c1csc(Nc2cc(F)cc(C(F)(F)F)c2)n1,MIC,Bacillus subtilis [1],1 µg/mL
same,Activity,Cell membrane [2],Active
same,MIC,Pseudomonas aeruginosa [3],0.125 µg/mL
same,fractional inhibitory concentration index (FICI),Pseudomonas aeruginosa [4],0.531
same,Activity,Staphylococcus aureus [5],Active
same,MIC,Staphylococcus aureus [6],1 µg/mL
same,fold change (FC),Pseudomonas aeruginosa [7],2
same,MIC,Bacillus subtilis [8],1 µg/mL
same,MIC,Staphylococcus aureus [9],1 µg/mL
same,fold change (FC),Pseudomonas aeruginosa [10],16
same,Activity,Cell membrane [11],Active
same,MIC,Klebsiella pneumoniae [12],0.125 µg/mL
same,MIC,Enterococcus faecalis,2 µg/mL
same,MIC,Pseudomonas aeruginosa [13],0.25 µg/mL
same,MIC,Klebsiella pneumoniae [14],> 128 µg/mL
same,fractional inhibitory concentration index (FICI),Klebsiella pneumoniae [15],0.094
same,fold change (FC),Acinetobacter baumannii [16],16
same,MIC,Acinetobacter baumannii [17],0.031 µg/mL
same,fold change (FC),Acinetobacter baumannii [18],4
same,MIC,Pseudomonas aeruginosa [19],1 µg/mL
same,Activity,Acinetobacter baumannii [20],inactive
same,MIC,Bacillus subtilis [21],0.5 µg/mL
same,fold change (FC),Klebsiella pneumoniae [22],16
same,MIC,Acinetobacter baumannii [23],0.063 µg/mL
same,Activity,Acinetobacter baumannii [24],Active
same,fractional inhibitory concentration index (FICI),Acinetobacter baumannii [25],0.066
same,MIC,Staphylococcus aureus [26],0.5 µg/mL
same,MIC,[27],2 µg/mL
same,MIC,Staphylococcus aureus [28],0.5 µg/mL
same,Activity,Cell membrane [29],Active
same,MIC,Acinetobacter baumannii [30],> 128 µg/mL
same,MIC,Staphylococcus aureus [31],2 µg/mL
same,fractional inhibitory concentration index (FICI),Acinetobacter baumannii [32],0.094
same,MIC,Pseudomonas aeruginosa [33],> 128 µg/mL
same,Activity,Cell membrane [34],Active
same,MIC,Acinetobacter baumannii [35],> 128 µg/mL
same,MIC,Klebsiella pneumoniae [36],> 128 µg/mL
same,fold change (FC),Klebsiella pneumoniae [37],32
